For one series, the target named is T1, CYP2C9 (Homo sapiens, UniProt P11712).
T1 construct: Pooled human liver microsome was used, and tolbutamide was used as a substrate; from tissue; host or cells: pooled human liver microsomes
The series is described as follows: Hepatic drug-metabolizing enzyme inhibitory activity in humans (CYP2C9). In kind it is in vitro ADME. The conditions noted are these: pooled human liver microsome, tolbutamide 200 μmol/L, 37° C., 30 minutes; 80a as free base; read-out: IC50 (CYP2C9, tolbutamide metabolite). The procedure:
As test compounds, the compounds of Examples 80a, 83a, 108a, 117a, 123a, 128a, 139a, 142a, and 143a were used. Note that the compound of Example 80a was used in the form of free base.
Pooled human liver microsome was used, and tolbutamide was used as a substrate. The reaction was performed in a phosphate buffer (100 mmol/L, pH 7.4), and the final concentrations in the reaction system were adjusted to 0.5 mg/mL of human liver microsome protein, 200 μmol/L of the substrate, 1.55 mmol/L of oxidized nicotinamide adenine dinucleotide phosphate (NADP+), 3.3 mmol/L of glucose-6-phosphate, 3.3 mmol/L of magnesium chloride, and 0.4 Units/mL of glucose-6-phosphate dehydrogenase (G6PDH). The final concentration of each compound in the reaction solution was adjusted to 0.08 to 50 μg/mL. These reaction solutions were each subjected to reaction at 37° C. for 30 minutes. The reaction was terminated with an equal amount of acetonitrile. After centrifugation, the concentration of a tolbutamide metabolite in the supernatant was quantitatively measured by LC-MS/MS. The inhibitory activity was determined as IC50. As a positive control, sulfaphenazole was used.

Series [1] deals with type I collagen α1 chain mRNA in WI-38 cells. Briefly: Type I collagen α1 chain mRNA expression inhibition test. Format: cell-based. The conditions noted are these: Homo sapiens, read-out: Inhibition rate (%) at 10 μmol/L. In short, it runs like this: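 Subconfluent WI-38 cells in DMEM with 0.4% FCS and 50 μg/mL ascorbic acid were given compound 1 h before TGF-β1 (1 ng/mL final). After 24 h, COL1A1 mRNA was quantified by SYBR real-time RT-PCR, normalised to GAPDH, and expressed relative to compound-free control (100%).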

The next series concerns SD-line male rats. Briefly: Repeated administration toxicity test in rat (oral administration, two weeks). Format: in vivo. The conditions noted are these: 1000 mg/kg, 5 rats per group, 80a and 1b as sodium salts. The procedure: As test compounds, the compounds of Examples 80a, 122a, 139a, 1b, 16b, and 19b were used. Note that the compounds of Examples 80a and 1b were used in the forms of sodium salts.
Each test compound was suspended in a 0.5% methylcellulose solution or distilled water to prepare a 100 mg/mL suspension. The suspension of the test compound was orally administered (10 mL/kg, test compound: 1000 mg/kg) to SD-line male rats (6-week-old, 5 rats for each group).

Series [2] relates to bleomycin-induced lung fibrosis (lung collagen amount). Briefly: Mouse bleomycin-induced lung fibrosis. Format: in vivo, mice C57BL/6N. The conditions noted are these: po, 672 h, read-out: lung collagen amount low compared with that of the control group. The procedure: The test was conducted using 8- to 10.5-week-old male mice C57BL/6N (Charles River Laboratories Japan, Inc.). Bleomycin (Nippon Kayaku Co., Ltd.) was dissolved in physiological saline in a concentration of 1.0 or 1.5 mg/mL, and 2 μL/g thereof was intranasally administered to each mouse to evoke lung fibrosis. A test compound was dissolved or suspended in a 10% aqueous solution of polyoxyethylene castor oil (trade name: Cremophor EL) or in water and orally administered in an amount of 10 mg/kg twice a day from the 14th to the 28th day from the evocation. In a control group, a 10% aqueous solution of polyoxyethylene castor oil or water was administered in the same manner. The lung was extracted from each mouse on the 28th day from the evocation, and collagen was quantitatively measured. The extracted lung was homogenized in a 0.5 mol/L aqueous solution of acetic acid containing a protease inhibitor cocktail (Complete, EDTA-free, Roche Diagnostics) in an amount of one tablet/50 mL, and water-soluble collagen was extracted in the presence of 10 mg/mL pepsin (Sigma) overnight. The amount of collagen was measured using a kit (Sircol Soluble Collagen assay kit, Biocolor).
The inhibition rate was determined by the following expression: Inhibition rate (%)=[1−(lung collagen amount in test compound administration group)/(lung collagen amount in control group)]×100

For series [3] the following is noted: side effect, clinical, Non Patent Document 3; cited from earlier work.

Counter-ions that a name gives are not always drawn. Like-named read-outs stand apart in the source and are kept apart here.

T1 sequence (P11712 whole entry): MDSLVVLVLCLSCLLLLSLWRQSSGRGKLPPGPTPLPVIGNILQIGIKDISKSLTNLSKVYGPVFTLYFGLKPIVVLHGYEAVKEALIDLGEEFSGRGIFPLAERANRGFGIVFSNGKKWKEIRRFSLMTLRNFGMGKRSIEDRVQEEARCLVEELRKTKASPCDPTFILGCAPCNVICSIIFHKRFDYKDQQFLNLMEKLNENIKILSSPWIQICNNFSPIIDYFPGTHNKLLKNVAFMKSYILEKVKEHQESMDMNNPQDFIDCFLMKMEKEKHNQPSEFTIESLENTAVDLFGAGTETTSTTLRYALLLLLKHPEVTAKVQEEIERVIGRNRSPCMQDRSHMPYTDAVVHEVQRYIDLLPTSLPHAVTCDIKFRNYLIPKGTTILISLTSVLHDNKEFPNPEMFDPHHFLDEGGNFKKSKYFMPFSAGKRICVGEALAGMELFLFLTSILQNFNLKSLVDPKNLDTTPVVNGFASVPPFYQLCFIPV

By IC50 is commonly meant the concentration that gives 50% inhibition. Turning to `O=C(Nc1cc(-c2ccccc2)ccc1C(=O)O)c1cc(OCCN2CCOCC2)ccc1O` [Example 139a, 2-(2-hydroxy-5-(2-(morpholin-4-yl)ethoxy)benzamido)-4-phenylbenzoic acid hydrochloride], on CYP2C9, the IC50 is above 108 µM. In addition, in series [1] (WI-38, 24 h), the inhibition at 10 µM amounted to 85%. Also, the “survival on the 14th day from the administration” value (“survival on the 14th day” for short) with SD-line male rats is “all rats survived”.
Regarding `O=C(Nc1cc(-c2ccccc2)ccc1C(=O)O)c1cc(N2CCCCC2)ccc1O` [Example 80a, 2-(2-hydroxy-5-(piperidin-1-yl)benzamido)-4-phenylbenzoic acid hydrochloride], the IC50 on CYP2C9 is above 120 µM. In addition, in series [2], the inhibition in vivo at 10 mg/kg is at least 30%. Also, in series [1] (WI-38, 24 h), the inhibition at 10 µM worked out at 95%. For the same compound, the “survival on the 14th day” value with SD-line male rats is on record as “all rats survived”.
On to `Cc1ccc(=O)n(-c2ccccc2)c1` [pirfenidone, Pirfenidone], for which the photosensitivity in subjects in series [3] was 87.9%.
With `O=C(Nc1cc(-c2ccco2)ccc1C(=O)[O-])c1cncc(-c2ccccc2)c1.[Na+]` [19b, sodium 4-(furan-2-yl)-2-(5-phenylpyridine-3-carboxamido)benzoate], the inhibition in vivo at 10 mg/kg in series [2] (orally 10 mg/kg twice a day, 14th to 28th day, lung on 28th day, 23a, 1b, 7c as sodium salts, 122a, 143a as hydrochloric acid salts) was at least 30%. Moreover, the inhibition at 10 µM in series [1] (10 μmol/L test compound, WI-38 cells, TGF-β1 1 ng/mL, 24 hours, Table 4b) came out at 90%. Also, in the series on SD-line male rats, the “survival on the 14th day” value was “all rats survived”.
